Source: patent publication US20240239759A1, “ISOXAZOLINE COMPOSITIONS AND THEIR USE AS ANTIPARASITICS” (Intervet Inc., priority 2007, published 2024)
Like-named read-outs stand apart in the source and are kept apart here.

Tests used:
[1] = system: cat fleas (C. felis); assay: Further efficacy study against cat fleas on beagles (Example 6); type: in vivo, Ctenocephalides felis
Protocol: (§1) Beagles were randomly assigned to 5 treatment groups of 4 animals each, and one untreated control group of 3 animals.
(§2) The dogs were infested with approximately 80 fleas (C. felis) and 60 ticks (R. sanguineus) on Days −2, 7, 14, 21, 28, 35, 42, and 49. Fleas and ticks were counted on Day 2 (approximately 48 h after treatment), as well as Days 9, 16, 23, 30, 37, 44, and 51 (approximately 48 hr after each post-treatment re-infestation) to evaluate the insecticidal and acaricidal activity in the treated groups. In Group B, an additional flea and tick infestation was conducted on Day 56, with a respective flea and tick count on Day 58. In addition to the flea and tick counts, blood samples were collected before the treatments, as well as approximately 2 hr, 4 hr, 8 hr, 24 hr, and 72 hr after the treatment on Day Zero, and then once on each of Days 7, 14, 21, 28, 35, 42, 49, and 56. The concentration of Compound 11-1 in blood plasma was analyzed by HPLC/MS/MS. The LOQ of this method was 5 ng/ml.

[2] = system: brown dog ticks (R. sanguineus); assay: Efficacy against brown dog ticks on dogs (Example 5); type: in vivo, Rhipicephalus sanguineus; conditions: beagles, Day 2 (approx. 48 hr after treatment)
Protocol: (§3) On Day Zero, one group of 4 beagles was treated orally with gelatin capsules containing 20 mg/kg body weight of […]. Another group of 4 beagles was treated topically by washing with 2 L of solution containing 200 ppm body weight of […] dissolved in DMF-premix/tap water (1:100, based on volume). Finally, a group of 3 beagles remained untreated as the negative control. Two days before treatment on Day Zero, all the beagles were each infested with approximately 80 unfed adult fleas (C. felis) and approximately 60 unfed adult ticks (R. sanguineus). The parasite burden of each beagle was assessed on Day 2 (approximately 48 hr after the treatment) by removing and counting the fleas and ticks. Fleas and ticks were classified according to vitality (fleas: dead or alive; ticks: dead or alive, and engorged or not engorged). The efficacy was calculated from the mean number of vital fleas and ticks in the treated group (Mt) relative to the mean number of vital fleas and ticks in the untreated control group (Mc) using following formula: […]

[3] = system: cat fleas (Ctenocephalides felis); assay: Efficacy of various isoxazolines against cat fleas on mice (Example 3); type: in vivo; conditions: Ctenocephalides felis, po, mice, oral 20 mg/kg, infested 1 hr after treatment, read-out: Flea inhibition relative to negative control
Method in brief: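 Mice (3/group) dosed orally at 20 mg/kg in 7% DMF-premix/water; whole-body infestation with 30 adult C. felis 1 h post-dose, fleas recovered after ~30 min feeding. Inhibition and mortality assessed 1, 24 and 48 h after infestation; efficacy as percent inhibited fleas relative to untreated controls.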

[4] = system: brown dog ticks (R. sanguineus); assay: Further efficacy study against brown dog ticks on beagles (Example 6); type: in vivo, Rhipicephalus sanguineus
Protocol: as §1, §2

[5] = Side effects in dogs (Example 5); type: in vivo; conditions: beagles; oral 20 mg/kg or topical 200 ppm
Protocol: as §3

[6] = Group A: 1 mg/kg oral tablet, Day 2
[7] = Group A: 1 mg/kg oral tablet, Day 9
[8] = Group A: 1 mg/kg oral tablet, Day 16
[9] = Group A: 1 mg/kg oral tablet, Day 23
[10] = Group A: 1 mg/kg oral tablet, Day 30
[11] = Group A: 1 mg/kg oral tablet, Day 37
[12] = Group A: 1 mg/kg oral tablet, Day 44
[13] = Group A: 1 mg/kg oral tablet, Day 51
[14] = Group B: 1 mg/kg subcutaneous injectable solution, Day 2
[15] = Group B: 1 mg/kg subcutaneous injectable solution, Day 9
[16] = Group B: 1 mg/kg subcutaneous injectable solution, Day 16
[17] = Group B: 1 mg/kg subcutaneous injectable solution, Day 23
[18] = Group B: 1 mg/kg subcutaneous injectable solution, Day 30
[19] = Group B: 1 mg/kg subcutaneous injectable solution, Day 37
[20] = Group B: 1 mg/kg subcutaneous injectable solution, Day 44
[21] = Group B: 1 mg/kg subcutaneous injectable solution, Day 51
[22] = Group B: 1 mg/kg subcutaneous injectable solution, Day 58
[23] = Group C: 1 mg/kg topical spot-on with absorption enhancer, Day 2
[24] = Group C: 1 mg/kg topical spot-on with absorption enhancer, Day 9
[25] = Group C: 1 mg/kg topical spot-on with absorption enhancer, Day 16
[26] = Group C: 1 mg/kg topical spot-on with absorption enhancer, Day 23
[27] = Group C: 1 mg/kg topical spot-on with absorption enhancer, Day 30
[28] = Group C: 1 mg/kg topical spot-on with absorption enhancer, Day 37
[29] = Group C: 1 mg/kg topical spot-on with absorption enhancer, Day 44
[30] = Group C: 1 mg/kg topical spot-on with absorption enhancer, Day 51
[31] = Group D: 1 mg/kg topical spot-on with absorption enhancer and spreading agent, Day 2
[32] = Group D: 1 mg/kg topical spot-on with absorption enhancer and spreading agent, Day 9
[33] = Group D: 1 mg/kg topical spot-on with absorption enhancer and spreading agent, Day 16
[34] = Group D: 1 mg/kg topical spot-on with absorption enhancer and spreading agent, Day 23
[35] = Group D: 1 mg/kg topical spot-on with absorption enhancer and spreading agent, Day 30
[36] = Group D: 1 mg/kg topical spot-on with absorption enhancer and spreading agent, Day 37
[37] = Group D: 1 mg/kg topical spot-on with absorption enhancer and spreading agent, Day 44
[38] = Group D: 1 mg/kg topical spot-on with absorption enhancer and spreading agent, Day 51
[39] = Group E: 1 mg/kg topical spot-on in ethyl lactate, Day 2
[40] = Group E: 1 mg/kg topical spot-on in ethyl lactate, Day 9
[41] = Group E: 1 mg/kg topical spot-on in ethyl lactate, Day 16
[42] = Group E: 1 mg/kg topical spot-on in ethyl lactate, Day 23
[43] = Group E: 1 mg/kg topical spot-on in ethyl lactate, Day 30
[44] = Group E: 1 mg/kg topical spot-on in ethyl lactate, Day 37
[45] = Group E: 1 mg/kg topical spot-on in ethyl lactate, Day 44
[46] = Group E: 1 mg/kg topical spot-on in ethyl lactate, Day 51

Cc1cc(C2=NOC(c3cc(Cl)cc(Cl)c3)(C(F)(F)F)C2)ccc1C(=O)NCC(=O)NCC(F)(F)F (racemic) [Compound 11-1, 4-[5-(3,5-dichlorophenyl)-5-trifluoromethyl-4,5-dihydroisoxazol-3-yl]-2-methyl-N-[(2,2,2-trifluoro-ethylcarbamoyl)-methyl]-benzamide]
Efficacy against cat fleas [1, 6]: 100
Efficacy against cat fleas [1, 7]: 100
Efficacy against cat fleas [1, 8]: 100
Efficacy against cat fleas [1, 9]: 100
Efficacy against cat fleas [1, 10]: 100
Efficacy against cat fleas [1, 11]: 99.6
Efficacy against cat fleas [1, 12]: 100
Efficacy against cat fleas [1, 13]: 100
Efficacy against cat fleas [1, 14]: 100
Efficacy against cat fleas [1, 15]: 100
Efficacy against cat fleas [1, 16]: 100
Efficacy against cat fleas [1, 17]: 100
Efficacy against cat fleas [1, 18]: 99.6
Efficacy against cat fleas [1, 19]: 100
Efficacy against cat fleas [1, 20]: 100
Efficacy against cat fleas [1, 21]: 100
Efficacy against cat fleas [1, 22]: 99.7
Efficacy against cat fleas [1, 23]: 100
Efficacy against cat fleas [1, 24]: 100
Efficacy against cat fleas [1, 25]: 100
Efficacy against cat fleas [1, 26]: 100
Efficacy against cat fleas [1, 27]: 100
Efficacy against cat fleas [1, 28]: 100
Efficacy against cat fleas [1, 29]: 100
Efficacy against cat fleas [1, 30]: 100
Efficacy against cat fleas [1, 31]: 100
Efficacy against cat fleas [1, 32]: 100
Efficacy against cat fleas [1, 33]: 100
Efficacy against cat fleas [1, 34]: 100
Efficacy against cat fleas [1, 35]: 100
Efficacy against cat fleas [1, 36]: 100
Efficacy against cat fleas [1, 37]: 100
Efficacy against cat fleas [1, 38]: 100
Efficacy against cat fleas [1, 39]: 100
Efficacy against cat fleas [1, 40]: 100
Efficacy against cat fleas [1, 41]: 100
Efficacy against cat fleas [1, 42]: 100
Efficacy against cat fleas [1, 43]: 100
Efficacy against cat fleas [1, 44]: 100
Efficacy against cat fleas [1, 45]: 100
Efficacy against cat fleas [1, 46]: 100
Tick efficacy ([2]; oral gelatin capsules 20 mg/kg): 100%
Tick efficacy ([2]; topical washing with 2 L of 200 ppm solution): 100%
pest or weed control at 20 mg/kg ([3]; 1 h, 1 hr after infestation): 78.9%
pest or weed control at 20 mg/kg ([3]; 24 h, 24 hr after infestation): 96.7%
pest or weed control at 20 mg/kg ([3]; 48 h, 48 hr after infestation): 97.8%
Efficacy against brown dog ticks [4, 6]: 99.4
Efficacy against brown dog ticks [4, 7]: 99.3
Efficacy against brown dog ticks [4, 8]: 98.3
Efficacy against brown dog ticks [4, 9]: 98.2
Efficacy against brown dog ticks [4, 10]: 98.9
Efficacy against brown dog ticks [4, 11]: 94.6
Efficacy against brown dog ticks [4, 12]: 82.0
Efficacy against brown dog ticks [4, 13]: 82.0
Efficacy against brown dog ticks [4, 14]: 100
Efficacy against brown dog ticks [4, 15]: 99.3
Efficacy against brown dog ticks [4, 16]: 100
Efficacy against brown dog ticks [4, 17]: 98.8
Efficacy against brown dog ticks [4, 18]: 99.5
Efficacy against brown dog ticks [4, 19]: 98.8
Efficacy against brown dog ticks [4, 20]: 95.1
Efficacy against brown dog ticks [4, 21]: 88.8
Efficacy against brown dog ticks [4, 22]: 74.0
Efficacy against brown dog ticks [4, 23]: 81.9
Efficacy against brown dog ticks [4, 24]: 98.7
Efficacy against brown dog ticks [4, 25]: 94.8
Efficacy against brown dog ticks [4, 26]: 98.2
Efficacy against brown dog ticks [4, 27]: 96.2
Efficacy against brown dog ticks [4, 28]: 87.0
Efficacy against brown dog ticks [4, 29]: 76.5
Efficacy against brown dog ticks [4, 30]: 55.3
Efficacy against brown dog ticks [4, 31]: 83.1
Efficacy against brown dog ticks [4, 32]: 96.1
Efficacy against brown dog ticks [4, 33]: 98.3
Efficacy against brown dog ticks [4, 34]: 98.2
Efficacy against brown dog ticks [4, 35]: 96.2
Efficacy against brown dog ticks [4, 36]: 94.1
Efficacy against brown dog ticks [4, 37]: 73.8
Efficacy against brown dog ticks [4, 38]: 63.4
Efficacy against brown dog ticks [4, 39]: 70.6
Efficacy against brown dog ticks [4, 40]: 90.2
Efficacy against brown dog ticks [4, 41]: 95.9
Efficacy against brown dog ticks [4, 42]: 91.5
Efficacy against brown dog ticks [4, 43]: 97.8
Efficacy against brown dog ticks [4, 44]: 89.2
Efficacy against brown dog ticks [4, 45]: 79.8
Efficacy against brown dog ticks [4, 46]: 59.6
Side effects [5]: No side effects were observed
